{
  "source": "patent US7074598B2",
  "about": "“Detection of vancomycin-resistant enterococcus spp” (Mayo Foundation for Medical Education and Research, priority 2002, dated 2006)",
  "key": {"[1]": {"test_system": "Enterococcus", "assay": "culture and susceptibility results of anal swab specimens (VRE screen media)", "format": "cell-based", "description": "An additional 56 specimens obtained from anal swabs were analyzed using the LIGHTCYCLER™ assay and were compared to a culture method using a VRE screen media. The anal swabs were prepared for amplification as described above. The LIGHTCYCLER™ assay detected more positive specimens than did culture, and is therefore more sensitive than culture. A high rate of false negative results from rectal swab culture has been previously confirmed in the literature (Clin. Infect. Dis., 2002, 34:167–172)."}, "[2]": {"test_system": "vanA strains of vancomycin-resistant enterococci", "conditions": "cited from earlier work; for glycopeptide resistance phenotype: vanA phenotype"}, "[3]": {"test_system": "vanC phenotype of vancomycin-resistant enterococci", "conditions": "cited from earlier work"}, "[4]": {"test_system": "vanB strains of vancomycin-resistant enterococci", "conditions": "vanB phenotypes (vanB, vanB-2/3); cited from earlier work"}, "[5]": {"test_system": "Enterococcus isolates from anal swabs", "assay": "MIC of isolates cultured from anal swabs of hospitalized patients", "format": "cell-based", "description": "Four hundred ninety seven anal swabs collected from hospitalized patients were evaluated for the presence of vanA, vanB and vanB-2/3 genes by the LIGHTCYCLER™ vancomycin-resistant enterococci assay and by conventional culture methods. 482 of the 497 specimens were negative for the van genes and 12 were positive (9 vanA; 0 vanB; 3 vanB-2/3) by the LIGHTCYCLER™ vancomycin-resistant enterococci assay and the conventional culture screen using an 8 μg/ml Enterococcosel plate. […] The MIC values for all of the other isolates were susceptible to vancomycin at ≦8 μg/ml. An additional 21 specimens (4 vanA; 5 vanB; 12 vanB-2/3) were positive by the LIGHTCYCLER™ vancomycin-resistant enterococci assay but were negative by culture. Three of these patient specimens were culture positive with a repeat swab collection. Six of the positive specimens were separate specimens from the same patients. Due to the large number of vanB genotypes missed by culture and picked up with the LIGHTCYCLER™ vancomycin-resistant enterococci assay, the concentration of vancomycin in the Enterococcesel plates was decreased to 6 μg/ml, which is the usual laboratory standard (Manual of Clinical Microbiology, 7th Ed., 1999)."}, "[6]": {"test_system": "clinical isolates of Enterococcus", "assay": "agar dilution antimicrobial susceptibility testing (MIC) of clinical isolates of Enterococcus", "format": "cell-based", "description": "One hundred clinical isolates of Enterococcus (E. casseliflavus/flavescens [n=10], E. faecalis [n=34], E. faecium [n=43], E. avium [n=1], E. gallinarum [n=11], and E. raffinosus [n=1]) were grown on blood agar plates and evaluated for the presence of vanA, vanB, and vanB 2/3 genes using a rapid LIGHTCYCLER™ vancomycin-resistant enteroccoci assay. The LIGHTCYCLER™ vancomycin-resistant enteroccoci assay differentiates the three van genes based on the temperature range over which hybridization probes melt from the target DNA (e.g., as determined by a melting curve). […] The MIC values for all of the other isolates were susceptible to vancomycin at ≦8 μg/ml."}, "[7]": {"conditions": "Enterococcus cultured from anal swab specimen #52 (LightCycler VanA)"}, "[8]": {"conditions": "Enterococcus cultured from anal swab specimen #235 (LightCycler VanA)"}, "[9]": {"conditions": "Enterococcus cultured from anal swab specimen #244 (LightCycler VanA)"}, "[10]": {"conditions": "Enterococcus cultured from anal swab specimen #279 (LightCycler VanB-2/3)"}, "[11]": {"conditions": "Enterococcus cultured from anal swab specimen #286 (LightCycler VanB-2/3 weak)"}, "[12]": {"conditions": "Enterococcus cultured from anal swab specimen #296 (LightCycler Negative)"}, "[13]": {"conditions": "Enterococcus cultured from anal swab specimen #304 (LightCycler Negative)"}, "[14]": {"conditions": "Enterococcus cultured from anal swab specimen #419 (LightCycler VanA)"}, "[15]": {"conditions": "Enterococcus cultured from anal swab specimen #425 (LightCycler Negative)"}},
  "data": [
    {"compound": "CC1(C)S[C@@H]2[C@H](NC(=O)[C@H](N)c3ccccc3)C(=O)N2[C@H]1C(=O)O", "note": "[Amp, Ampicillan]", "values": [
      {"measurement": "Susceptibility Results", "setting": "[1]; [7]", "result": "S"},
      {"measurement": "Susceptibility Results", "setting": "[1]; [8]", "result": "Amp, Van, Pen, Gent = R"},
      {"measurement": "Susceptibility Results", "setting": "[1]; [9]", "result": "R"},
      {"measurement": "Susceptibility Results", "setting": "[1]; [10]", "result": "R"},
      {"measurement": "Susceptibility Results", "setting": "[1]; [11]", "result": "Amp, Van, Pen, Gent = S"},
      {"measurement": "Susceptibility Results", "setting": "[1]; [12]", "result": "Amp, Van, Pen, Gent = S"},
      {"measurement": "Susceptibility Results", "setting": "[1]; [13]", "result": "S"},
      {"measurement": "Susceptibility Results", "setting": "[1]; [14]", "result": "R"},
      {"measurement": "Susceptibility Results", "setting": "[1]; [15]", "result": "S"}
    ]},
    {"compound": "CN[C@H](CC(C)C)C(=O)N[C@H]1C(=O)N[C@@H](CC(N)=O)C(=O)N[C@H]2C(=O)N[C@H]3C(=O)N[C@H](C(=O)N[C@H](C(=O)O)c4cc(O)cc(O)c4-c4cc3ccc4O)[C@H](O)c3ccc(c(Cl)c3)Oc3cc2cc(c3O[C@@H]2O[C@H](CO)[C@@H](O)[C@H](O)[C@H]2O[C@H]2C[C@](C)(N)[C@H](O)[C@H](C)O2)Oc2ccc(cc2Cl)[C@H]1O", "note": "[vancomycin]", "values": [
      {"measurement": "glycopeptide resistance phenotype", "setting": "[2]", "result": "high levels of resistance"},
      {"measurement": "minimum inhibitory concentration (MIC)", "setting": "[2]; vanA strains, typical level", "result": "> 64", "unit": "µg/mL"},
      {"measurement": "Susceptibility Results", "setting": "[1]; [7]", "result": "I"},
      {"measurement": "Susceptibility Results", "setting": "[1]; [8]", "result": "Amp, Van, Pen, Gent = R"},
      {"measurement": "Susceptibility Results", "setting": "[1]; [9]", "result": "R"},
      {"measurement": "Susceptibility Results", "setting": "[1]; [10]", "result": "S"},
      {"measurement": "Susceptibility Results", "setting": "[1]; [11]", "result": "Amp, Van, Pen, Gent = S"},
      {"measurement": "Susceptibility Results", "setting": "[1]; [12]", "result": "Amp, Van, Pen, Gent = S"},
      {"measurement": "Susceptibility Results", "setting": "[1]; [13]", "result": "I"},
      {"measurement": "Susceptibility Results", "setting": "[1]; [14]", "result": "R"},
      {"measurement": "Susceptibility Results", "setting": "[1]; [15]", "result": "I"},
      {"measurement": "glycopeptide resistance phenotype", "setting": "[3]", "result": "low levels of vancomycin-resistance"},
      {"measurement": "glycopeptide resistance phenotype", "setting": "[4]", "result": "variable vancomycin-resistance"},
      {"measurement": "MIC", "setting": "[5]; all of the other isolates from anal swabs, susceptible", "result": "≤ 8", "unit": "µg/mL"},
      {"measurement": "MIC", "setting": "[5]; vanA and vanB positive isolates from anal swabs, all resistant", "result": "≥ 64", "unit": "µg/mL"},
      {"measurement": "MIC", "setting": "[6]; all of the other isolates (van gene negative), susceptible", "result": "≤ 8", "unit": "µg/mL"},
      {"measurement": "MIC", "setting": "[6]; vanA, vanB, and vanB-2/3 positive isolates (43 of 100 clinical isolates), all resistant", "result": "≥ 64", "unit": "µg/mL"}
    ]},
    {"compound": "Gentamycin", "values": [
      {"measurement": "Susceptibility Results", "setting": "[1]; [7]", "result": "S"},
      {"measurement": "Susceptibility Results", "setting": "[1]; [8]", "result": "Amp, Van, Pen, Gent = R"},
      {"measurement": "Susceptibility Results", "setting": "[1]; [9]", "result": "S"},
      {"measurement": "Susceptibility Results", "setting": "[1]; [10]", "result": "S"},
      {"measurement": "Susceptibility Results", "setting": "[1]; [11]", "result": "Amp, Van, Pen, Gent = S"},
      {"measurement": "Susceptibility Results", "setting": "[1]; [12]", "result": "Amp, Van, Pen, Gent = S"},
      {"measurement": "Susceptibility Results", "setting": "[1]; [13]", "result": "S"},
      {"measurement": "Susceptibility Results", "setting": "[1]; [14]", "result": "I"},
      {"measurement": "Susceptibility Results", "setting": "[1]; [15]", "result": "S"}
    ]},
    {"compound": "Pennicillin", "values": [
      {"measurement": "Susceptibility Results", "setting": "[1]; [7]", "result": "S"},
      {"measurement": "Susceptibility Results", "setting": "[1]; [8]", "result": "Amp, Van, Pen, Gent = R"},
      {"measurement": "Susceptibility Results", "setting": "[1]; [9]", "result": "R"},
      {"measurement": "Susceptibility Results", "setting": "[1]; [10]", "result": "R"},
      {"measurement": "Susceptibility Results", "setting": "[1]; [11]", "result": "Amp, Van, Pen, Gent = S"},
      {"measurement": "Susceptibility Results", "setting": "[1]; [12]", "result": "Amp, Van, Pen, Gent = S"},
      {"measurement": "Susceptibility Results", "setting": "[1]; [13]", "result": "S"},
      {"measurement": "Susceptibility Results", "setting": "[1]; [14]", "result": "R"},
      {"measurement": "Susceptibility Results", "setting": "[1]; [15]", "result": "S"}
    ]},
    {"compound": "teicoplanin", "values": [
      {"measurement": "glycopeptide resistance phenotype", "setting": "[2]", "result": "high levels of resistance"},
      {"measurement": "glycopeptide resistance phenotype", "setting": "[3]", "result": "susceptible"},
      {"measurement": "glycopeptide resistance phenotype", "setting": "[4]", "result": "susceptible"}
    ]}
  ]
}
